Source: the kinase profiling compilation of Christmann-Franck et al. (2016)

What was measured:
Experiment in all cases: radiometric filter-binding kinase assay
YES1 (human) = YES1 (human) (UniProt P07947)
CLK2 (human) = CLK2 (human) (UniProt P49760)
PIM3 (human) = PIM3 (human) (UniProt Q86V86)
TAOK1 (human) = TAOK1 (human) (UniProt Q7L7X3)
CSNK2A1 (human) = CSNK2A1 (human) (UniProt P68400)
MAPK13 (human) = MAPK13 (human) (UniProt O15264)
MARK3 (human) = MARK3 (human) (UniProt P27448)
MAPK11 (human) = MAPK11 (human) (UniProt Q15759)
EPHB2 (human) = EPHB2 (human) (UniProt P29323)
TBK1 (human) = TBK1 (human) (UniProt Q9UHD2)
HIPK1 (human) = HIPK1 (human) (UniProt Q86Z02)
GCK (human) = GCK (human) (UniProt Q12851)
Chain of GCK (human) (Q12851 whole entry, looked up): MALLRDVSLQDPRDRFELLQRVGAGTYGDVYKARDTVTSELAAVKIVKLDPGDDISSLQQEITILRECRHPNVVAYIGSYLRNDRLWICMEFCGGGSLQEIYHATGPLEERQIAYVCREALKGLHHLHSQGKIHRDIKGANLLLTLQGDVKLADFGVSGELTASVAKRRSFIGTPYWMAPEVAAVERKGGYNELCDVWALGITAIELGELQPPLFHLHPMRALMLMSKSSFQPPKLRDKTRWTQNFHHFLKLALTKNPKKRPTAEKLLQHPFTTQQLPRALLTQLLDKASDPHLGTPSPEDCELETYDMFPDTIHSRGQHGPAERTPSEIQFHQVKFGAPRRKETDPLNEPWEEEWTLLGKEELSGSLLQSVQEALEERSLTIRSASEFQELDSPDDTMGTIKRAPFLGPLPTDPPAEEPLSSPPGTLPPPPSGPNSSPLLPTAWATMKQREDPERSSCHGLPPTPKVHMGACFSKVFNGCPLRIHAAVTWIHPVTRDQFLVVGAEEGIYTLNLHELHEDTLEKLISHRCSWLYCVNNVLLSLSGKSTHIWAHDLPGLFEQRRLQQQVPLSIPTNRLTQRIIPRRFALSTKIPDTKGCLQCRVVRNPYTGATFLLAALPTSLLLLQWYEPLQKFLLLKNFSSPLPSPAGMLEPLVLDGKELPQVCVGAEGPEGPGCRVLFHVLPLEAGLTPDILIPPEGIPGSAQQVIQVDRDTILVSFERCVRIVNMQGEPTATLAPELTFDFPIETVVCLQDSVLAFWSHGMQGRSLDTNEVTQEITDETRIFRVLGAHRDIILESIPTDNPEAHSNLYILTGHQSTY

MAPK8 (human) = MAPK8 (human) (UniProt P45983)
SRPK1 (human) = SRPK1 (human) (UniProt Q96SB4)
AURKB (human) = AURKB (human) (UniProt Q96GD4)
DAPK1 (human) = DAPK1 (human) (UniProt P53355)
CaMK1 (human) = CaMK1 (human) (UniProt Q14012)
BRSK2 (human) = BRSK2 (human) (UniProt Q8IWQ3)
HIPK2 (human) = HIPK2 (human) (UniProt Q9H2X6)
PHKG1 (human) = PHKG1 (human) (UniProt Q16816)
Chain of PHKG1 (human) (Q16816 whole entry, looked up): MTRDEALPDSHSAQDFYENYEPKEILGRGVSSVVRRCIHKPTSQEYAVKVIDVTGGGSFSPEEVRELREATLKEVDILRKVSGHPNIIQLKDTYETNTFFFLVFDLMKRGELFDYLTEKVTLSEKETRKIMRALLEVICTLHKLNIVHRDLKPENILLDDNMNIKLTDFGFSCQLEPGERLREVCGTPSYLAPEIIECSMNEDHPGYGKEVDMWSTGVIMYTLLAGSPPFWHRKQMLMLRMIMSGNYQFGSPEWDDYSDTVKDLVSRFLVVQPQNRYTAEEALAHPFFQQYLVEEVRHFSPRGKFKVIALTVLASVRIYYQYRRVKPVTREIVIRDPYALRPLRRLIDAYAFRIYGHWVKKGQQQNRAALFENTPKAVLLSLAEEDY

IGF1R (human) = IGF1R (human) (UniProt P08069)
STK3 (human) = STK3 (human) (UniProt Q13188)
MINK1 (human) = MINK1 (human) (UniProt Q8N4C8)
Chain of MINK1 (human) (Q8N4C8 whole entry, looked up): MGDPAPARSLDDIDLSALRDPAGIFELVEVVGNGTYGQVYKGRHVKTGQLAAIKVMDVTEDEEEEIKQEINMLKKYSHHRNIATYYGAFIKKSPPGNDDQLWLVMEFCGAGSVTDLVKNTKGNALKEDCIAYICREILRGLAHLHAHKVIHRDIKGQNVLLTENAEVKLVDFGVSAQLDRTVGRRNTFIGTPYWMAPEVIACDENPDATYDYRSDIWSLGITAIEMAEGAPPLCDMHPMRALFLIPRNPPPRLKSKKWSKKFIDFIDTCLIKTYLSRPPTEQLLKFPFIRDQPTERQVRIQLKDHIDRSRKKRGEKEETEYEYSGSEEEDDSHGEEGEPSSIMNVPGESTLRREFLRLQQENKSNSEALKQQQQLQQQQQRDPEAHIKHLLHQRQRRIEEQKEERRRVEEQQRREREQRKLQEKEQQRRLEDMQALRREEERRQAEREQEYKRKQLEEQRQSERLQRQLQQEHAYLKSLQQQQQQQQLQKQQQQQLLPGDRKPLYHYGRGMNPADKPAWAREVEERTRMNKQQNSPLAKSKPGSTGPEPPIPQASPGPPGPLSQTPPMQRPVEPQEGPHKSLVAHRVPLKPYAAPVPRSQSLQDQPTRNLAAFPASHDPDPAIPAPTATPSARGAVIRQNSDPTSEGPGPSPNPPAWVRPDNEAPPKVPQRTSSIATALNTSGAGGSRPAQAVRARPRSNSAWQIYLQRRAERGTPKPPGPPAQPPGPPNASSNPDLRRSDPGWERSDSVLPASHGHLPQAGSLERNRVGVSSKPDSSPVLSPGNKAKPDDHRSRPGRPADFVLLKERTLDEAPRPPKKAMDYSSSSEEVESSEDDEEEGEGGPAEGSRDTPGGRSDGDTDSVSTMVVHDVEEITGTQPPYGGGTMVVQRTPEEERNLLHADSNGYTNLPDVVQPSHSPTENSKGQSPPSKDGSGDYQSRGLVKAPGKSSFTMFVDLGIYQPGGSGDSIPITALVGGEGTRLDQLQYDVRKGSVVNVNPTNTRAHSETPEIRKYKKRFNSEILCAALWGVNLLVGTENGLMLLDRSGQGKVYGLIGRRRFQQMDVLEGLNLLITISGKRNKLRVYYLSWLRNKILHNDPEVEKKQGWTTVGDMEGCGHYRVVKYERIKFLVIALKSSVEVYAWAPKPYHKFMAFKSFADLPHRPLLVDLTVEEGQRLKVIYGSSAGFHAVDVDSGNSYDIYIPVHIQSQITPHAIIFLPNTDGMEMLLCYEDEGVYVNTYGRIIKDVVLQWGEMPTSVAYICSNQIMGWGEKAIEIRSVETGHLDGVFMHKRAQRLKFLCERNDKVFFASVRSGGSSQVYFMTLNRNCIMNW

MAPK10 (human) = MAPK10 (human) (UniProt P53779)
Chain of MAPK10 (human) (P53779 whole entry, looked up): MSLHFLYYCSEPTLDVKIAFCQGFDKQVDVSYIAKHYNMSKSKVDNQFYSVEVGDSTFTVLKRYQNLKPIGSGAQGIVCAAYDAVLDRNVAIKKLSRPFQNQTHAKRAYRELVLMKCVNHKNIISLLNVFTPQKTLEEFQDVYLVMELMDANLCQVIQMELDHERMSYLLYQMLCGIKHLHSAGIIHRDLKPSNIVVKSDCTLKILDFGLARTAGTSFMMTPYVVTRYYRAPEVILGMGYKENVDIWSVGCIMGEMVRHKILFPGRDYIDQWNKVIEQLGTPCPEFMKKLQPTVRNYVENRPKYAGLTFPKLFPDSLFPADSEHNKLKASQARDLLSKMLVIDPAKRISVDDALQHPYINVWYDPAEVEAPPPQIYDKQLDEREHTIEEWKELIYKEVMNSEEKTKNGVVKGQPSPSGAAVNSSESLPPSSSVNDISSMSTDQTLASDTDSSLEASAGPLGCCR

[1] = tested on: SGK1 (human), O00141 [S422D]; conditions: compound 1.0 µM
DYRK3 (human) = DYRK3 (human) (UniProt O43781)
MKNK1 (human) = MKNK1 (human) (UniProt Q9BUB5)
Chain of MKNK1 (human) (Q9BUB5 whole entry, looked up): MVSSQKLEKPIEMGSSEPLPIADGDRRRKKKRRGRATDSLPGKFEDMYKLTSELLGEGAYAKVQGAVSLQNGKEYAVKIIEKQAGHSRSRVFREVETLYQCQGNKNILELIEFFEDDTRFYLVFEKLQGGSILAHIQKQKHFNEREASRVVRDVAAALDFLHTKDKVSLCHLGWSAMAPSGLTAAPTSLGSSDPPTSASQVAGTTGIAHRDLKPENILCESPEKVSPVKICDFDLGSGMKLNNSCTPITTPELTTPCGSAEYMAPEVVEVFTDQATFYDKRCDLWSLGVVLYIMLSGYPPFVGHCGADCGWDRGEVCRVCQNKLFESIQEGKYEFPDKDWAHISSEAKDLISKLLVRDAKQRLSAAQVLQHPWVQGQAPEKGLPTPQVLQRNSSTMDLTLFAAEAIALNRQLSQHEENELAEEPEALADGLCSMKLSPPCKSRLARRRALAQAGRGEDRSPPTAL

JAK2 JH1 JH2 (human) = JAK2 JH1 JH2 (human) (UniProt O60674)
CAMKK2 (human) = CAMKK2 (human) (UniProt Q96RR4)
LCK (mouse) = conditions: accession and sequence are those of the human protein
FGFR1 (human) = FGFR1 (human) (UniProt P11362)
Chain of FGFR1 (human) (P11362 whole entry, looked up): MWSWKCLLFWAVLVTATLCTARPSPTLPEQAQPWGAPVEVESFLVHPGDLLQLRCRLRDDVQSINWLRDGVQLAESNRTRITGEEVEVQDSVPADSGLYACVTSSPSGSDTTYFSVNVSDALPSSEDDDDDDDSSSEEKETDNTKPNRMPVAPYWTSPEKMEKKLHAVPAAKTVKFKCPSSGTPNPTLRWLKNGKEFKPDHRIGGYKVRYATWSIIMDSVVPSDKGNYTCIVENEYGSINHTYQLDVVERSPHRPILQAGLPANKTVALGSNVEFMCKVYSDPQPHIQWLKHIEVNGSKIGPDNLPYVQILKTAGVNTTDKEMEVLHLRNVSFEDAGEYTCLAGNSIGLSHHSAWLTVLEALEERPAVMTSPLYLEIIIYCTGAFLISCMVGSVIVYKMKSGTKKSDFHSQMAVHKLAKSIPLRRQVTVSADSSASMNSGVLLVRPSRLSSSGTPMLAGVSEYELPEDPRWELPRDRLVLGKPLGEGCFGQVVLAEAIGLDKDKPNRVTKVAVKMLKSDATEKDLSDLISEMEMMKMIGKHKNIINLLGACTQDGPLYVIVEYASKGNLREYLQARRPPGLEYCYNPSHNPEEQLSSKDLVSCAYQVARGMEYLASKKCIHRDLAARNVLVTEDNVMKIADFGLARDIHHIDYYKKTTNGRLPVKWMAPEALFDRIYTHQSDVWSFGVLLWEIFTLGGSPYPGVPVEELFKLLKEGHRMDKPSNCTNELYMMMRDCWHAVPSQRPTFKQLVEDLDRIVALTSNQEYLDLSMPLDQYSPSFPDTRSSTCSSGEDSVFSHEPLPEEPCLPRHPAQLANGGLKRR

MAPKAPK5 (human) = MAPKAPK5 (human) (UniProt Q8IW41)
CHEK1 (human) = CHEK1 (human) (UniProt O14757)
ROCK2 (rat) = conditions: accession and sequence are those of the human protein
[2] = tested on: PAK2 (human), Q13177 [T402E]
DYRK1A (human) = DYRK1A (human) (UniProt Q13627)

Chain of MARK3 (human) (P27448 whole entry, looked up): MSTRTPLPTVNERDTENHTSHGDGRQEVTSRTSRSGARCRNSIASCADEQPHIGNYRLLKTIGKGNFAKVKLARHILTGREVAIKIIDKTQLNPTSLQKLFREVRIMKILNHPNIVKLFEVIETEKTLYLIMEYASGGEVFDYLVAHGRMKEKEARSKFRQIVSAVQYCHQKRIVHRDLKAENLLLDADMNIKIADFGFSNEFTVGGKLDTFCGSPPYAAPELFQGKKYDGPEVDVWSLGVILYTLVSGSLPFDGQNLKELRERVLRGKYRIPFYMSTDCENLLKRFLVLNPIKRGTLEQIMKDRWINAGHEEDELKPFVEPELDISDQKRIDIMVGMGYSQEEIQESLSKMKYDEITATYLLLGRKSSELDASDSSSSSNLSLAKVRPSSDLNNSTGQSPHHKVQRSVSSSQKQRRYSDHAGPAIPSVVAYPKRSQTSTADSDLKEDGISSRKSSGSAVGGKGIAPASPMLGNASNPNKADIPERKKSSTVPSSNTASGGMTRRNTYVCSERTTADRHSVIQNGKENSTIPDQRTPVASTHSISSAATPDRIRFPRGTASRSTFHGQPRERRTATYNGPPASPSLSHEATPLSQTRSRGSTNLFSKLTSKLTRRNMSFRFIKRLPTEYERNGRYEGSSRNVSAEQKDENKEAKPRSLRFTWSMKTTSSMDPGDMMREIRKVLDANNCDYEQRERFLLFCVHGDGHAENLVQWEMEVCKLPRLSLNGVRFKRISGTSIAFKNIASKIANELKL

Nc1cccc2c1CN(C1CCC(=O)NC1=O)C2=O (stereo not drawn)
residual activity (YES1 (human); compound 1.0 µM): 102%
residual activity (YES1 (human); compound 10.0 µM): 102%
residual activity (CLK2 (human); compound 1.0 µM): 104%
residual activity (CLK2 (human); compound 10.0 µM): 98%
residual activity (PIM3 (human); compound 1.0 µM): 101%
residual activity (PIM3 (human); compound 10.0 µM): 103%
residual activity (TAOK1 (human); compound 1.0 µM): 106%
residual activity (TAOK1 (human); compound 10.0 µM): 96%
residual activity (CSNK2A1 (human); compound 1.0 µM): 106%
residual activity (CSNK2A1 (human); compound 10.0 µM): 93%
residual activity (MAPK13 (human); compound 1.0 µM): 109%
residual activity (MAPK13 (human); compound 10.0 µM): 123%
residual activity (MARK3 (human); compound 1.0 µM): 91%
residual activity (MARK3 (human); compound 10.0 µM): 94%
residual activity (MAPK11 (human); compound 1.0 µM): 96%
residual activity (MAPK11 (human); compound 10.0 µM): 106%
residual activity (EPHB2 (human); compound 1.0 µM): 107%
residual activity (EPHB2 (human); compound 10.0 µM): 113%
residual activity (TBK1 (human); compound 1.0 µM): 95%
residual activity (TBK1 (human); compound 10.0 µM): 102%
residual activity (HIPK1 (human); compound 1.0 µM): 92%
residual activity (HIPK1 (human); compound 10.0 µM): 101%
residual activity (GCK (human); compound 1.0 µM): 103%
residual activity (GCK (human); compound 10.0 µM): 114%
residual activity (MAPK8 (human); compound 1.0 µM): 99%
residual activity (MAPK8 (human); compound 10.0 µM): 106%
residual activity (SRPK1 (human); compound 1.0 µM): 104%
residual activity (SRPK1 (human); compound 10.0 µM): 104%
residual activity (AURKB (human); compound 1.0 µM): 83%
residual activity (AURKB (human); compound 10.0 µM): 105%
residual activity (DAPK1 (human); compound 1.0 µM): 95%
residual activity (DAPK1 (human); compound 10.0 µM): 104%
residual activity (CaMK1 (human); compound 1.0 µM): 103%
residual activity (CaMK1 (human); compound 10.0 µM): 91%
residual activity (BRSK2 (human); compound 1.0 µM): 98%
residual activity (BRSK2 (human); compound 10.0 µM): 105%
residual activity (HIPK2 (human); compound 1.0 µM): 107%
residual activity (HIPK2 (human); compound 10.0 µM): 103%
residual activity (PHKG1 (human); compound 1.0 µM): 101%
residual activity (PHKG1 (human); compound 10.0 µM): 103%
residual activity (IGF1R (human); compound 1.0 µM): 106%
residual activity (IGF1R (human); compound 10.0 µM): 106%
residual activity (STK3 (human); compound 1.0 µM): 102%
residual activity (STK3 (human); compound 10.0 µM): 101%
residual activity (MINK1 (human); compound 1.0 µM): 111%
residual activity (MINK1 (human); compound 10.0 µM): 118%
residual activity (MAPK10 (human); compound 1.0 µM): 90%
residual activity (MAPK10 (human); compound 10.0 µM): 95%
residual activity [1]: 91%
residual activity (DYRK3 (human); compound 1.0 µM): 104%
residual activity (DYRK3 (human); compound 10.0 µM): 99%
residual activity (MKNK1 (human); compound 1.0 µM): 116%
residual activity (MKNK1 (human); compound 10.0 µM): 111%
residual activity (JAK2 JH1 JH2 (human); compound 1.0 µM): 103%
residual activity (JAK2 JH1 JH2 (human); compound 10.0 µM): 93%
residual activity (CAMKK2 (human); compound 1.0 µM): 92%
residual activity (CAMKK2 (human); compound 10.0 µM): 84%
residual activity (LCK (mouse); compound 1.0 µM): 100%
residual activity (LCK (mouse); compound 10.0 µM): 99%
residual activity (FGFR1 (human); compound 10.0 µM): 109%
residual activity (MAPKAPK5 (human); compound 1.0 µM): 86%
residual activity (MAPKAPK5 (human); compound 10.0 µM): 87%
residual activity (CHEK1 (human); compound 1.0 µM): 94%
residual activity (CHEK1 (human); compound 10.0 µM): 82%
residual activity (ROCK2 (rat); compound 1.0 µM): 90%
residual activity (ROCK2 (rat); compound 10.0 µM): 88%
residual activity ([2]; compound 1.0 µM): 101%
residual activity ([2]; compound 10.0 µM): 103%
residual activity (DYRK1A (human); compound 1.0 µM): 107%
residual activity (DYRK1A (human); compound 10.0 µM): 99%

CN(C)C/C=C/C(=O)Nc1cccc(C(=O)Nc2ccc(Nc3nccc(-c4cccnc4)n3)cc2)c1
residual activity (YES1 (human); compound 0.1 µM): 80%
residual activity (YES1 (human); compound 1.0 µM): 58%
residual activity (CLK2 (human); compound 0.1 µM): 49%
residual activity (CLK2 (human); compound 1.0 µM): 18%
residual activity (PIM3 (human); compound 0.1 µM): 97%
residual activity (PIM3 (human); compound 1.0 µM): 84%
residual activity (TAOK1 (human); compound 0.1 µM): 96%
residual activity (CSNK2A1 (human); compound 0.1 µM): 80%
residual activity (CSNK2A1 (human); compound 1.0 µM): 81%
residual activity (MAPK13 (human); compound 0.1 µM): 106%
residual activity (MAPK13 (human); compound 1.0 µM): 100%
residual activity (MARK3 (human); compound 0.1 µM): 101%
residual activity (MARK3 (human); compound 1.0 µM): 76%
residual activity (MAPK11 (human); compound 0.1 µM): 96%
residual activity (MAPK11 (human); compound 1.0 µM): 82%
residual activity (EPHB2 (human); compound 0.1 µM): 101%
residual activity (EPHB2 (human); compound 1.0 µM): 103%
residual activity (TBK1 (human); compound 0.1 µM): 77%
residual activity (TBK1 (human); compound 1.0 µM): 79%
residual activity (HIPK1 (human); compound 0.1 µM): 86%
residual activity (HIPK1 (human); compound 1.0 µM): 78%
residual activity (GCK (human); compound 0.1 µM): 45%
residual activity (GCK (human); compound 1.0 µM): 20%
residual activity (MAPK8 (human); compound 0.1 µM): 9%
residual activity (MAPK8 (human); compound 1.0 µM): 4%
residual activity (SRPK1 (human); compound 0.1 µM): 105%
residual activity (SRPK1 (human); compound 1.0 µM): 104%
residual activity (AURKB (human); compound 0.1 µM): 74%
residual activity (AURKB (human); compound 1.0 µM): 73%
residual activity (DAPK1 (human); compound 0.1 µM): 90%
residual activity (DAPK1 (human); compound 1.0 µM): 83%
residual activity (CaMK1 (human); compound 0.1 µM): 87%
residual activity (CaMK1 (human); compound 1.0 µM): 92%
residual activity (BRSK2 (human); compound 0.1 µM): 82%
residual activity (BRSK2 (human); compound 1.0 µM): 76%
residual activity (HIPK2 (human); compound 0.1 µM): 85%
residual activity (HIPK2 (human); compound 1.0 µM): 46%
residual activity (PHKG1 (human); compound 0.1 µM): 94%
residual activity (PHKG1 (human); compound 1.0 µM): 83%
residual activity (IGF1R (human); compound 1.0 µM): 102%
residual activity (STK3 (human); compound 0.1 µM): 83%
residual activity (STK3 (human); compound 1.0 µM): 64%
residual activity (MINK1 (human); compound 0.1 µM): 92%
residual activity (MINK1 (human); compound 1.0 µM): 69%
residual activity (MAPK10 (human); compound 0.1 µM): 15%
residual activity (MAPK10 (human); compound 1.0 µM): 16%
residual activity [1]: 105%
residual activity (DYRK3 (human); compound 0.1 µM): 81%
residual activity (DYRK3 (human); compound 1.0 µM): 79%
residual activity (MKNK1 (human); compound 0.1 µM): 84%
residual activity (JAK2 JH1 JH2 (human); compound 0.1 µM): 85%
residual activity (JAK2 JH1 JH2 (human); compound 1.0 µM): 77%
residual activity (CAMKK2 (human); compound 0.1 µM): 87%
residual activity (CAMKK2 (human); compound 1.0 µM): 35%
residual activity (LCK (mouse); compound 0.1 µM): 95%
residual activity (LCK (mouse); compound 1.0 µM): 101%
residual activity (FGFR1 (human); compound 0.1 µM): 94%
residual activity (FGFR1 (human); compound 1.0 µM): 95%
residual activity (MAPKAPK5 (human); compound 0.1 µM): 96%
residual activity (MAPKAPK5 (human); compound 1.0 µM): 85%
residual activity (CHEK1 (human); compound 0.1 µM): 74%
residual activity (CHEK1 (human); compound 1.0 µM): 88%
residual activity (ROCK2 (rat); compound 0.1 µM): 89%
residual activity (ROCK2 (rat); compound 1.0 µM): 71%
residual activity ([2]; compound 0.1 µM): 102%
residual activity ([2]; compound 1.0 µM): 93%
residual activity (DYRK1A (human); compound 0.1 µM): 97%
residual activity (DYRK1A (human); compound 1.0 µM): 85%
